Here are results for 1 compound from US4220637A (Agence Nationale de Valorisation de la Recherche, priority 1976, dated 1980).

This data set deals with rabbits. The data set can be described thus: pyrogenic effect test on rabbits (Pharmacopee Francaise, 9th edition, II-235). It is filed as in vivo.

`CC(=O)N[C@H]1C(O)O[C@H](CO)[C@@H](O)[C@@H]1O[C@H](C)C(=O)N[C@@H](C)C(=O)N[C@H](CCC(N)=O)C(N)=O` (stereo partly drawn) [Mur-NAc-L-Ala-D-Glu(NH2)--NH2, diamide of the 2-(2-acetamido-2-deoxy-3-O-D-glucopyranosyl)-D-propionyl-L-alanyl-D-glutamic acid]: the increase of temperature result (2 mg/kg, sub-cutaneously and intravenously) was “did not induce any increase of temperature”. Also, the pyrogenic effect result (Pharmacopee Francaise protocol) is on record as “fully devoid of any pyrogenic effect”.
